Test results taken from patent US12503484B2, “Androstane derivatives with activity as pure or predominantly pure stimulators of SERCA2a for the treatment of heart failure” (Seismic Pharmaceuticals, priority 2019, dated 2025).
“Also recorded” adds a separate entry of the source. Like-named read-outs stand apart in the source and are kept apart here. Marks after values point to notes of the source that are not given here.

Columns and labels:
[1] = molecular target: dog renal Na^+/K^+ ATPase (Canis lupus familiaris (Dog) (Canis familiaris), UniProt P50997); assay: biochemical; details: IC50 inhibition of dog renal Na+/K+ ATPase, purified dog kidney enzyme;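 also: enzyme preincubated with inhibitor 10 min at 37 °C, then K^+ and ^32P-ATP added for 15 min, released ^32P counted, activity relative to untreated control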
SERCA2a = SERCA2a (Cavia porcellus, UniProt A0A286XD73); assay: SERCA2a ATPase activity in heart-derived SR microsomes from normal guinea-pig; assay type: biochemical
SERCA2a, sequence (A0A286XD73 1-997): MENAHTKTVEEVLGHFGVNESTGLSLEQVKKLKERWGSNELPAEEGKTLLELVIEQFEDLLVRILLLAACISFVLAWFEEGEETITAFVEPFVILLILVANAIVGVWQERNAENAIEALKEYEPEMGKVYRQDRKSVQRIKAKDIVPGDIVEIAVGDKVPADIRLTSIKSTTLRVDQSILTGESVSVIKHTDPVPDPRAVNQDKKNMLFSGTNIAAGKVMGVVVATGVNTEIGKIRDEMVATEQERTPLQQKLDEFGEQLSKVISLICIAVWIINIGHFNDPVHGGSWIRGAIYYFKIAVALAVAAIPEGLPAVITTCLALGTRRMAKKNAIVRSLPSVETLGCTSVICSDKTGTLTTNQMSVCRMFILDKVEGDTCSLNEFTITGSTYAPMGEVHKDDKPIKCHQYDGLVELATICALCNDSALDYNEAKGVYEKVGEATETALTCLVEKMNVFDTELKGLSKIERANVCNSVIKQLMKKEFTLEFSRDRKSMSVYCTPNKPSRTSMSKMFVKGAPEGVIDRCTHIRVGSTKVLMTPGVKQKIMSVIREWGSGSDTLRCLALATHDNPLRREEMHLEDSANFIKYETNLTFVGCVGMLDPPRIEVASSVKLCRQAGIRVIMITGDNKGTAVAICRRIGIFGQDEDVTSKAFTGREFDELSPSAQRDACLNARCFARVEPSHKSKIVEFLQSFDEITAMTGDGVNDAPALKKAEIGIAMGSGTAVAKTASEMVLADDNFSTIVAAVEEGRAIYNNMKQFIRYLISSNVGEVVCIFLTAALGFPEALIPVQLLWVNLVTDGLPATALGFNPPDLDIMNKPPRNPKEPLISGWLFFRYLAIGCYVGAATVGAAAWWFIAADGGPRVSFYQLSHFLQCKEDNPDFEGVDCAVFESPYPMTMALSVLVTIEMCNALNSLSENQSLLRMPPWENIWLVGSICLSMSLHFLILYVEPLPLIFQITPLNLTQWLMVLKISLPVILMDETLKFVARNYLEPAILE
Procedure: SERCA2a ATPase Activity in Heart-Derived SR Microsomes from Normal Quinea-Pig
SERCA2a activity was measured in vitro as ^32P-ATP hydrolysis at different Ca^2+ concentrations (100-4000 nM) in the absence and presence of the tested compounds, as described (Micheletti R. et al., Am J Card 2007, 99:24A-32A). Increasing concentrations of each compound (ranging from 1 to 200 nM) were pre-incubated with 2 μg of SERCA2a enriched microsomes for 5 min at 4° C. in 80 μl of a solution containing 100 mM KCl, 5 mM MgCl2, 1 μM A23187, 20 mM Tris, pH 7.5. […] SERCA2a-dependent activity was identified as the portion of total hydrolytic activity inhibited by 10 μM cyclopiazonic acid (Seidler N W et al., J Biol Chem. 1989, 264:17816-23).
Dose-response curves were fitted by using a sigmoidal equation and the activity at the maximal velocity (Vmax) and the Kd for Ca^2+ were calculated (Synergy Software KaleidaGraph 3.6). The effect of the compounds in normal guinea-pig preparations was expressed as % decrease of Kd Ca^2+ (implying an increase of affinity for Ca^2+) of a control sample run in the absence of compound (Table 2). […] Data are mean±SD, n=number of experiments, *at least p<0.05.

[2] = system: guinea-pig ventricular myocytes; assay: Action potential measurements in guinea-pig ventricular myocytes; assay type: cell-based; details: 1 μM; for action potential duration (APD90) / diastolic membrane potential (Ediast) / maximum depolarization velocity (dV/dtmax) / rate-dependency of each AP parameter: 0.5-1-2-4 Hz; for slope of linear fit STV vs mean APD90: all pacing rates pooled; for short term APD variability (STV) and its dependency on mean APD: pacing rates 0.5-1-2 and 4 Hz
Procedure: (§1) The compounds were characterized for their effect on (i) SR Ca^2+ uptake function and (ii) action potential (AP) in myocytes freshly dissociated from rat and guinea-pig ventricles, respectively, by retrograde coronary perfusion with enzymatic solution (Rocchetti M et al., J Pharmacol Exper Therap 2005, 313(1):207-215).
Cvie216 and Cvie214 effects on action potential parameters were evaluated at the concentration of 1 μM modulating SERCA2a in guinea-pig myocytes. The action potential (AP) contour provides a first-line estimate of the integrated function of membrane ion channels, and its changes may disclose ancillary actions—potentially resulting in untoward effects of the compound. To increase sensitivity of the AP contour as a reporter, effects on the rate-dependency of AP parameters were also tested, thus providing a multiparametric (more stringent) approach. AP were recorded in guinea-pig ventricular myocytes because the AP contour reproduces the human AP. […] Statistical analysis was performed by a “group comparison” model.
APs were recorded in normal Tyrode's solution at 36.5° C. in guinea-pig ventricular myocytes. The following parameters were measured at 4 stimulation rates (0.5-1-2-4 Hz): diastolic membrane potential (Ediast), maximum depolarization velocity (dV/dtmax), action potential duration (APD at 90% of repolarization). Short term APD variability (STV) during steady-state pacing, an index of repolarization stability, was measured as the sum of absolute orthogonal deviations from the identity line in the APDnfAPDn+1 plot (Poincare plot) (Altomare C et al., Circulation A&E 2015, 8:1265-1275).

[3] = system: rat ventricular myocytes isolated from STZ rats; assay: SR Ca2+ uptake function in ventricular myocytes from STZ rats (loading protocol); assay type: cell-based; details: 1 μM
Source text: as §1
To test the effects of the compounds in a model of diastolic dysfunction, Sprague Dawley male rats (150-175 g) were made diabetic by a single tail vein injection of streptozotocin (STZ 50 mg/kg, Sigma-Aldrich). STZ was freshly prepared in 0.1 M sodium citrate buffer at pH 4.5. Fasting glycaemia was measured after 1 week and rats with values >300 mg/dl were considered diabetic. Drug effects on SR Ca^2+ uptake function were evaluated in isolated left ventricular myocytes 9 weeks after STZ injection. Myocytes were incubated for at least 30 min in the presence of a specific drug to guarantee its cell membrane permeation. Statistical analysis was performed by a “group comparison” model.
Drug effects on SR Ca^2+ uptake rate were evaluated with a SR “loading protocol” specifically devised to rule out the contribution of the Na/Ca exchanger (NCX) and to assess the uptake rate starting at low levels of SR Ca^2+ loading. Under voltage-clamp conditions, intracellular Ca^2+ concentration was dynamically measured by epifluorescence (Fluo4-AM). Membrane current, whose time-dependent component mainly reflected ICaL, was simultaneously recorded. The SR loading protocol consisted in emptying the SR by a brief caffeine pulse and then progressively refilling it by voltage steps activating Ca^2+ influx through the sarcolemmal Ca^2+ channel (ICaL). NCX was blocked by omission of Na^+ from intracellular and extracellular solutions. The procedure is in agreement with published methods, with minor modifications (Rocchetti M et al., J Pharmacol Exper Therap 2005, 313:207-215).
Drug effects on SR Ca^2+ uptake were analyzed by considering multiple parameters: the rate at which 1) Ca^2+ transient (CaT) amplitude and 2) the Ca^2+ induced Ca^2+ release (CICR) gain increased during the loading protocol, reflecting the rate at which the SR refilled and the gain of the system, 3) the time constant of cytosolic Ca^2+ decay (τdecay) within each pulse, reflecting net Ca^2+ transport rate (by SERCA2a) across the SR membrane (a decrease in τdecay corresponds to enhanced SR Ca^2+ uptake).

STZ diabetic rats = assay: Haemodynamics in streptozotocin diabetic rats (echocardiography); assay type: in vivo, rat; details: after 15 min IV infusion 0.2 mg/kg/min
Procedure: CVie214 and CVie216 were tested in a diabetic rat model. Briefly, rats were injected with streptozotocin (STZ). After 7-9 weeks from STZ injection, rats were submitted to transthoracic echocardiographic and Doppler evaluation performed under urethane anesthesia. Two-dimensionally guided M-mode recordings were used to obtain short-axis measurements of left ventricular end-diastolic diameter (LVEDD), left ventricular end-systolic diameter (LVESD), posterior (PW) and septal (SW) diastolic wall thickness according to the American Society of Echocardiography guidelines (Lang R M et al., Eur J Echocardiography 2006, 7:79-108). Fractional shortening was calculated as FS=(LVEDD−LVESD)/LVEDD. Relative wall thickness was calculated as PWTd+IVSTd/LVEDD. Mitral inflow was measured by pulsed Doppler at the tips of mitral leaflets from an apical 4-chamber view to obtain early and late filling velocities (E, A) and deceleration time of early filling velocity (DT). The deceleration slope was calculated as E/DT ratio. The mitral deceleration index was calculated as DT/E ratio. Tissue Doppler Imaging (TDI) was evaluated from the apical 4-chamber view to record septal mitral annular movements, i.e., peak myocardial systolic (s′) and early and late diastolic velocity (e′ and a′).
After baseline hemodynamic measurements were taken, the rats were administered Digoxin, CVie214, CVie216 and compared to control. Digoxin, used as reference drug, was intravenously infused at 0.11 mg/kg/min for 15 min and echocardiographic parameters measured after 1 h. CVie214-salt and CVie216-salt were intravenously infused in STZ diabetic rats at 0.2 mg/kg/min and echocardiographic parameters were measured after 15 min and 30 min.
Tables 4-6 show the haemodynamic parameters in STZ diabetic rats for Digoxin, CVie214-salt, and Cvie216-salt.

[4] = Acute toxicity in the mouse; details: Albino Swiss CD-1, in vivo
Procedure: The acute toxicity of the tested compound CVie214-salt and CVie216-salt have been determined in the mouse (Albino Swiss CD-1, body weight 30 g). Compounds have been orally administered or intravenously injected at increasing doses to identify the dose causing 50% mortality. Mortality occurred within 30 min after the administration and survival after 24 h.
As comparison, the acute toxicity for the reference compounds Digoxin and Istaroxime were also included. Digoxin refers to literature data (www.lookchem.com, Reference for Digoxin intravenous: Afifi A M, Ammar E M. Pharmacological Research Communications. Vol. 6, Pg. 417, 1974; Reference for Digoxin oral: Archives Internationales de Pharmacodynamie et de Therapie. Vol. 153, Pg. 436, 1965) (Table 3).

[5] = read-out: Kd Ca2+ (nM) mean ± SD, compound 1 nM
[6] = read-out: Kd Ca2+ (nM) mean ± SD, compound 10 nM
[7] = read-out: Kd Ca2+ (nM) mean ± SD, compound 100 nM
[8] = read-out: Kd Ca2+ (nM) mean ± SD, compound 200 nM

Structure (SMILES)	IC50 [1] [nM]	Kd (SERCA2a; [5]) [nM]	Kd (SERCA2a; [6]) [nM]	Kd (SERCA2a; [7]) [nM]	Kd (SERCA2a; [8]) [nM]	action potential duration (APD90) [2]	diastolic membrane potential (Ediast) [2]	maximum depolarization velocity (dV/dtmax) [2]	rate-dependency of each AP parameter [2]	slope of linear fit STV vs mean APD90 [2]	short term APD variability (STV) and its dependency on mean APD [2]	Ca2+ transient (CaT) amplitude / rate of CaT increment during SR reloading [3]	Ca2+ uptake by the SR [3]	Ca2+-induced Ca2+ release (CICR) gain [3]	time constant of Ca2+ decay (τdecay) [3]	further results
C[C@]12CC[C@H](CC(=O)O)CC1C(O)CC1C2CC[C@]2(C)C(=O)CCC12 (stereo in doubt) [CVie216, 2-(6beta-hydroxy-17-oxoandrostane-3-yl) acetic acid]	> 100000	529 ± 75.8	465 ± 73.4	443 ± 85.1	463 ± 76.3	did not affect	did not affect	did not affect	did not affect	0.009	not significantly affected	statistically significant; also recorded: increased	significantly increased	increase	reduction	–
C[C@]12CC[C@H](CCCC(=O)O)CC1[C@@H](O)CC1C2CC[C@]2(C)C(=O)CCC12 (stereo partly drawn) [CVie214, 4-(6alpha-hydroxy-17-oxoandrostane-3-yl) butyric acid]	> 100000	474 ± 40.4	467 ± 62.4	427 ± 48.9	409 ± 60.1	did not affect	did not affect	did not affect	did not affect	0.014	not significantly affected	failed to significantly increase	significantly increased	affected by the drug as expected from SERCA2a enhancement	close to significance; also recorded: affected by the drug as expected from SERCA2a enhancement	HR heart rate (STZ diabetic rats): modestly, but significantly, increased; s′ TDI contraction velocity (STZ diabetic rats): modestly, but significantly, increased
C[C@]12CC[C@H](CCC3CCNCC3)CC1[C@@H](CO)[C@@H](O)[C@@H]1[C@@H]2CC[C@]2(C)C(=O)CC[C@@H]12 (stereo partly drawn) [CVie412, 3beta-[2-(piperidin-4-yl)ethyl]-6alpha-hydroxymethyl-7alpha-hydroxyandrostane-17-one]	3000	–	–	363 ± 74.1	361 ± 76.3	–	–	–	–	–	–	–	–	–	–	% change in Ca2+ Kd vs control (negative = decrease) (SERCA2a; compound 100 nM): −19.1%; % change in Ca2+ Kd vs control (negative = decrease) (SERCA2a; compound 200 nM): −19.6%*
C[C@]12CC/C(=N/OCCN)C[C@@H]1C(=O)C[C@@H]1[C@@H]2CC[C@]2(C)C(=O)CC[C@@H]12 [Istaroxime, (3Z,5a)-3-[(2-aminoethoxy)imino]androstane-6,17-dione, reference compound]	140	–	–	–	–	–	–	–	–	–	–	–	–	–	–	LD50 at 24 h ([4]; iv): 29 to 32 mg/kg; LD50 at 24 h ([4]; oral, os): 200 mg/kg; Kd (SERCA2a; compound 1 nM, read-out: Kd Ca2+ (nM) mean ± SD): 524 ± 57.4 nM; Kd (SERCA2a; compound 10 nM, read-out: Kd Ca2+ (nM) mean ± SD): 464 ± 52.4 nM; Kd (SERCA2a; compound 100 nM, read-out: Kd Ca2+ (nM) mean ± SD): 462 ± 59.1 nM
